Marks after values point to notes of the source that are not given here. Non-standard residues stand in square brackets, D forms with d. Residues, ends and D or L forms follow the SMILES beside them. *: point of attachment. Sta = CC(C)C[C@H](N)[C@@H](O)CC(=O)O; Isovaleryl = CC(C)CC(=O)*; Cbz = O=C(OCc1ccccc1)*; CH2F = FC*
Experiments:
MDA-MB-231 cells = experiment: Transwell invasion assay of MDA-MB-231 breast cancer cells; format: cell-based; settings: for invasion of MDA-MB-231 cells (in words): cathepsin inhibitors vs cells not treated with inhibitors
Method: The invasion assay was performed by using the transwell insert (BD FALCON, Bedford, USA) equipped with a 8 μm pore-sized filter. An upper part of the transwell insert filter was coated with 20 μl of matrigel (1 mg/ml) while a bottom part of the same was coated with 30 μl of type I collagen (0.5 mg/ml). The MDA-MB-231 cells (5×10^5 cells/100 μl) were added to the insert chamber, and then, each inhibitor was also added thereto. To induce invasion of the cells, a medium supplemented with 5% FBS was added to each well of the bottom chamber to allow a reaction at a temperature of 37° C. in a cell incubator. 18 hours later, the cells remained after removing the solution in the insert chamber were removed by using a cotton swab, whereas cells at the bottom of the membrane were fixed with methanol and stained with hematoxylin and eosin. The cells present at the membrane were observed through a microscope, and the number of the cells was counted in the selected 5 fields at the resolution of 200×.
According to the same manner as in Experimental Example 7, inhibitory effects of the amidopyridinol derivatives synthesized in Examples above on invasion of breast cancer cells, e.g., MDA-MB-231, were reviewed. Here, to compare with, inhibitory effects of aminopyridinol derivatives, e.g., 6-amino-2,4,5-trimethylpyridine-3-ol (BJ-1101) and 6-diphenylamino-2,4,5-trimethylpyridine-3-ol (BJ-1201), on invasion of breast cancer cells, e.g., MDA-MB-231, were reviewed.

HT-29 cells / U937 cells = experiment: TNF-α-induced adhesion of HT-29 intestinal epithelial cells and U937 mononuclear cells; format: cell-based, human; settings: 1 μM, pre-treated 1 hour, TNF-α 10 ng/ml; for inhibition at 1 µM: Homo sapiens, read-out: Inhibitory rates (%)
Method: HT-29 cells were cultured in a 24-well plate at a concentration of […] cells/cm^2, and meanwhile, amidopyridinol compounds 8a to 8z were pre-treated for 1 hour at each concentration in a serum-free medium supplemented only with 1% PS. Next, 10 ng/ml of TNF-α was treated therewith to allow a reaction at a temperature of 37° C. for 3 hours. After the completion of the reaction, the medium of the HT-29 cells was removed, and then, the HT-29 cells were washed with PBS once. Afterwards, U937 cells, which were treated and reacted with 10 μg/mL of BCECF-AM at a temperature of 37° C. for 30 minutes, were allowed to react with the HT-29 cells at temperature of 37° C. for 1 hour. Then, to remove U937 cells that were not adhered to the HT-29 cells, the reacted cells were washed with PBS twice. In terms of cell dissolution, 0.1% Triton X-100 in 0.1M Tris was allowed to react with the cells for 30 minutes at room temperature, and then, the cells were subjected to quantify by measuring fluorescence thereof using the Fluostar optima microplate reader (BMG Labtechnologies, Germany).

[1] = tested on: VEGF-induced angiogenesis in chicken chorioallantoic membrane (CAM); experiment: CAM analysis of VEGF-induced angiogenesis; format: in vivo; settings: VEGF (20 ng/CAM) + Compound (0.01 nmol/CAM), number of blood vessels after 3 days; for inhibition in vivo at 0.01 nmol/CAM: Gallus gallus, 72 h, read-out: Inhibitory rates (%)
Method: To confirm inhibitory effects on angiogenesis through in vivo experiments, the chorioallantoic membrane (CAM) analysis was carried out (refer to Nguyen M et al., Microvascular Res., 47, pp 31-40, 1994). A fertilized egg of a chicken was cultured in conditions maintaining a temperature of 37° C. and relative humidity of 55%. On the 10th day of the culturing, a first small hole was made on an air sac part using a hypodermic needle (Green Cross Medical Corp., Korea), and then, a second hole was made on a flat part of the fertilized egg to make a window thereon. Air was removed through the first hole, i.e., the air sac part, and accordingly, the CAM was separated from the shell of the fertilized egg. Then, a grinding wheel (Multipro 395JA, Dremel, Mexico) was used to cut the air sac part, thereby making a window thereon. Next, the whatman filter disk #1 (Whatman Company, USA) was treated with 3 mg/mL of cortisone acetate, dried, and then, wet by VEGF at a concentration of 20 ng/CAM. The filter disk was placed on blood vessels through the window, and then, compounds prepared according to Examples above were each dissolved in DMSO, diluted with PBS, and then, treated for each concentration. After 3 days of treating the compounds, the CAM part on which the filter disk was placed was isolated, and then, washed with PBS. The Stemi SV6 stereomicroscope (Carl Zeiss, Germany) and the Image-Pro Plus software (Media Cybernetics; Silver Spring, Md., USA) were used to capture images of the CAM part, so as to measure the number of the blood vessels and to analyze data obtained therefrom.

A549 lung cancer cells = experiment: CAM inoculated with A549 lung cancer cells: angiogenesis and tumor growth; format: in vivo, chicken; settings: A549 on CAM, 5 days
Method: To confirm inhibitory effects on angiogenesis through in vivo experiments, the CAM analysis was carried out (refer to Nguyen M et al., Microvascular Res., 47, pp 31-40, 1994). A fertilized egg of a chicken was cultured in conditions maintaining a temperature of 37° C. and relative humidity of 55%. On the 9th day of the culturing, a first small hole was made on an air sac part using a hypodermic needle (Green Cross Medical Corp., Korea), and then, a second hole was made on a flat part of the fertilized egg to make a window thereon. Air was removed through the first hole, i.e., the air sac part, and accordingly, the CAM was separated from the shell of the fertilized egg. Then, a grinding wheel (Multipro 395JA, Dremel, Mexico) was used to cut the air sac part, thereby making a window thereon. Meanwhile, A549 lung cancer cells were mixed with matrigel at a ratio of 1:1, and then, the mixture was treated with Compounds 8a, 8b, and 8g, respectively, followed by being inoculated at a density of 1.5×10^6 cells/CAM.
After 5 days of the inoculation, the CAM part on which tumors were formed was isolated, and then, washed with PBS. The Stemi SV6 stereomicroscope (Carl Zeiss, Germany) and the Image-Pro Plus software (Media Cybernetics; Silver Spring, Md., USA) were used to capture images of the CAM part, so as to measure the number of the blood vessels and to analyze data obtained therefrom.

[2] = 1 μM, MDA-MB-231 invasion, 5% FBS, 18 hours

## CCCNC(=O)[C@H]1O[C@@H]1C(=O)N[C@H](C(=O)N1CCC[C@H]1C(=O)OC)[C@@H](C)CC [CA-074 Me]
MDA-MB-231 cells; 1 nM, MDA-MB-231 invasion, 5% FBS, 18 hours
  Inhibition rates (%): 19.73 ± 2.31 %
MDA-MB-231 cells; 5 nM, MDA-MB-231 invasion, 5% FBS, 18 hours
  Inhibition rates (%): 34.26 ± 2.30 %
MDA-MB-231 cells; 25 nM, MDA-MB-231 invasion, 5% FBS, 18 hours
  Inhibition rates (%): 44.45 ± 1.43 %
MDA-MB-231 cells
  invasion of MDA-MB-231 cells (in words): decreased invasion of the cells

## Cc1nc(NC(=O)CC(C)C)c(C)c(C)c1O [Compound 8e, N-(5-hydroxy-3,4,6-trimethylpyridine-2-yl)-3-methylbutanamide]
HT-29 cells / U937 cells
  inhibition at 1 µM: 64.2%
[1]
  inhibition in vivo at 0.01 nmol/CAM: 75.6 ± 8.9%

## Cc1nc(NC(=O)C2CCCCC2)c(C)c(C)c1O [Compound 8h, N-(5-hydroxy-3,4,6-trimethylpyridine-2-yl)cyclohexane carboxamide]
HT-29 cells / U937 cells
  inhibition at 1 µM: 64.5%
[1]
  inhibition in vivo at 0.01 nmol/CAM: 76.3 ± 7.2%

## Cc1nc(NC(=O)Cc2ccccc2)c(C)c(C)c1O [Compound 8i, N-(5-hydroxy-3,4,6-trimethylpyridine-2-yl)-2-penylacetamide]
HT-29 cells / U937 cells
  Inhibitory rates (%): 56.6* %
[1]
  Inhibitory rates (%): 69.6 ± 11.0 %

## Cc1nc(NC(=O)c2ccccc2)c(C)c(C)c1O [Compound 8k, N-(5-hydroxy-3,4,6-trimethylpyridine-2-yl)benzamide]
HT-29 cells / U937 cells
  inhibition at 1 µM: 18.5%
[1]
  inhibition in vivo at 0.01 nmol/CAM: 77.3 ± 13.1%

## COc1ccc(C(=O)Nc2nc(C)c(O)c(C)c2C)cc1 [Compound 8m, N-(5-hydroxy-3,4,6-trimethylpyridine-2-yl)-4-methoxybenzamide]
HT-29 cells / U937 cells
  inhibition at 1 µM: 13.9%
[1]
  inhibition in vivo at 0.01 nmol/CAM: 69.7 ± 4.5%

## Cc1nc(NC(=O)c2ccc3c(c2)OCO3)c(C)c(C)c1O [Compound 8o, N-(5-hydroxy-3,4,6-trimethylpyridine-2-yl)benzo[d][1,3]dioxol-5-carboxamide]
HT-29 cells / U937 cells
  inhibition at 1 µM: 40.2%
[1]
  inhibition in vivo at 0.01 nmol/CAM: 64.8 ± 17.4%

## Cc1nc(NC(=O)c2cccc(O)c2)c(C)c(C)c1O [Compound 8v, 3-hydroxy-N-(5-hydroxy-3,4,6-trimethylpyridine-2-yl)benzamide]
HT-29 cells / U937 cells
  inhibition at 1 µM: 54.1%

## Cc1nc(NC(=O)CC(C)CC(C)(C)C)c(C)c(C)c1O (centres unmarked) [Compound 8w, N-(5-hydroxy-3,4,6-trimethylpyridine-2-yl)-3,5,5-trimethylhexanamide]
HT-29 cells / U937 cells
  inhibition at 1 µM: 54.5%

## Cc1nc(NC(=O)Cc2ccc(Cl)cc2)c(C)c(C)c1O [Compound 8x, 2-(4-chlorophenyl)-N-(5-hydroxy-3,4,6-trimethylpyridine-2-yl)acetamide]
HT-29 cells / U937 cells
  inhibition at 1 µM: 41.5%

## Cc1nc(NC(=O)C(Cl)Cl)c(C)c(C)c1O [Compound 8y, 2,2-dichloro-N-(5-hydroxy-3,4,6-trimethylpyridine-2-yl)acetamide]
HT-29 cells / U937 cells
  inhibition at 1 µM: 60.6%

## Cc1nc(NC(=O)C=Cc2ccccc2)c(C)c(C)c1O [Compound 8z, N-(5-hydroxy-3,4,6-trimethylpyridine-2-yl)cinnamide]
HT-29 cells / U937 cells
  Inhibitory rates (%): 25.2%

## CC(C)(F)C[C@H](N[C@@H](c1ccc(-c2ccc(S(C)(=O)=O)cc2)cc1)C(F)(F)F)C(=O)NC1(C#N)CC1 [Odanacatib]
MDA-MB-231 cells; Homo sapiens, 0.04 μM, MDA-MB-231 invasion, 5% FBS, 18 hours, read-out: Inhibition rates (%)
  inhibition at 0.04 µM: 14.9 ± 4.14%
MDA-MB-231 cells; Homo sapiens, 0.2 μM, MDA-MB-231 invasion, 5% FBS, 18 hours, read-out: Inhibition rates (%)
  inhibition at 0.2 µM: 19.9 ± 3.77%
MDA-MB-231 cells; Homo sapiens, 1 μM, MDA-MB-231 invasion, 5% FBS, 18 hours, read-out: Inhibition rates (%)
  inhibition at 1 µM: 22.3 ± 3.7%

## CC(C)CC(=O)N[C@H](C(=O)N[C@H](C(=O)N[C@@H](CC(C)C)[C@@H](O)CC(=O)N[C@@H](C)C(=O)N[C@@H](CC(C)C)[C@@H](O)CC(=O)O)C(C)C)C(C)C [Pepstatin A] (Isovaleryl-VV[Sta]A[Sta]-OH)
MDA-MB-231 cells; [2]
  Inhibition rates (%): 3.42 ± 0.42%
MDA-MB-231 cells; 5 μM, MDA-MB-231 invasion, 5% FBS, 18 hours
  Inhibition rates (%): 4.04 ± 0.33%
MDA-MB-231 cells; 25 μM, MDA-MB-231 invasion, 5% FBS, 18 hours
  Inhibition rates (%): 5.54 ± 0.77%

## CN(C)c1ccc(/C=C2\C(=O)Nc3ccccc32)cc1 [SU4312, reference compound]
[1]
  Inhibitory rates (%): 74.6 ± 8.5 %
A549 lung cancer cells; 0.01 pmol/CAM
  Inhibition rates of angiogenesis (%): 20.8 ± 1.4 %
  Inhibition rates of tumor growth (%): 16.2 ± 20.4%
A549 lung cancer cells; 0.1 pmol/CAM
  Inhibition rates of angiogenesis (%): 25.1 ± 2.8 %
  Inhibition rates of tumor growth (%): 23.4 ± 9.3%
A549 lung cancer cells; 1.0 pmol/CAM
  Inhibition rates of angiogenesis (%): 36.2 ± 1.9 %
  Inhibition rates of tumor growth (%): 26.8 ± 4.9%

## O=C(NC(Cc1ccccc1)C(=O)NC(Cc1ccccc1)C(=O)CF)OCc1ccccc1 (stereo not drawn) [Z-FF-FMK] (Cbz-Phe-Phe-CH2F; configuration not given here)
MDA-MB-231 cells; 0.04 μM, MDA-MB-231 invasion, 5% FBS, 18 hours
  Inhibition rates (%): 3.42 ± 2.08%
MDA-MB-231 cells; 0.2 μM, MDA-MB-231 invasion, 5% FBS, 18 hours
  Inhibition rates (%): 6.97 ± 2.35%
MDA-MB-231 cells; [2]
  Inhibition rates (%): 10.16 ± 2.16 %

## CC(C)C[C@H](NC(=O)[C@H](Cc1ccccc1)NC(=O)OCc1ccccc1)C(=O)C=O [Z-FL-COCHO]
MDA-MB-231 cells; 0.4 nM, MDA-MB-231 invasion, 5% FBS, 18 hours
  Inhibition rates (%): 34.36 ± 3.00 %
MDA-MB-231 cells; 2 nM, MDA-MB-231 invasion, 5% FBS, 18 hours
  Inhibition rates (%): 44.67 ± 2.61 %
MDA-MB-231 cells; 10 nM, MDA-MB-231 invasion, 5% FBS, 18 hours
  Inhibition rates (%): 50.12 ± 2.76 %
MDA-MB-231 cells
  invasion of MDA-MB-231 cells (in words): decreased invasion of the cells

Reference: patent publication US9802897B2, “Amidopyridinol derivative or pharmaceutically acceptable salt thereof and pharmaceutical composition comprising same as active component” (Research Cooperation Foundation of Yeungnam University, priority 2013, dated 2017)
